# Laboratory results from PMC10709440, “High-throughput ligand profile characterization in novel cell lines expressing seven heterologous insect olfactory receptors for the detection of volatile plant biomarkers” (Scientific Reports, 2023).
# Where “and” joins values, the source holds several entries; their conditions need not be identical. Identical values can stand only once. Like-named read-outs stand apart in the source and are kept apart here.
# Key:
# Drosophila OR49b = molecular target: T1, Drosophila OR49b (Drosophila melanogaster, UniProt Q9V6H2); test: cell-based; conditions: for Average response: OR49b cell line, mean of biological replicates
# T1 construct: expressed in transfected cells
# T1 sequence (Q9V6H2 1-375): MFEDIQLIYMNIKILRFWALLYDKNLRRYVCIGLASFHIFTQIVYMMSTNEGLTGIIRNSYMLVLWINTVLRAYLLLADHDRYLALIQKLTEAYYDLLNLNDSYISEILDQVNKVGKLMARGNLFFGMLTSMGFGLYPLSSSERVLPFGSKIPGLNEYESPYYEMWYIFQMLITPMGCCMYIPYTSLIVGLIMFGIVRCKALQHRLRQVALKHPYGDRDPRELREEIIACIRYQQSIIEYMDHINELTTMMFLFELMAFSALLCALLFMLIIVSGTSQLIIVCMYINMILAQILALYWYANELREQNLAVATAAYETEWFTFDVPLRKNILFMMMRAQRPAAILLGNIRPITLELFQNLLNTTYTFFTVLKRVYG
# T1 sequence (Q9VNB5 1-486 partner): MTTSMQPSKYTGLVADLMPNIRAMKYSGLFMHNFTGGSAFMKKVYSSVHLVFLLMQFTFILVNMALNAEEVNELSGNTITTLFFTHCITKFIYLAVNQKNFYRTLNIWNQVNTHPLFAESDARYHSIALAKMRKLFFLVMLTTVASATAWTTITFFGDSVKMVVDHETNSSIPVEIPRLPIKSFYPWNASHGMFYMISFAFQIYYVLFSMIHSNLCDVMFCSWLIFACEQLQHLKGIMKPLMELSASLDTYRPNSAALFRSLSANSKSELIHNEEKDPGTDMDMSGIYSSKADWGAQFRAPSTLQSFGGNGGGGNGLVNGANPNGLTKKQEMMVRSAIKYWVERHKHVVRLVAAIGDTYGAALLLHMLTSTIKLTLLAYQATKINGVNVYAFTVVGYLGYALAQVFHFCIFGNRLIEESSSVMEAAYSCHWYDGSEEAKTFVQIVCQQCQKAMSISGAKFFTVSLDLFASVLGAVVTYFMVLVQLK
# Summary of the method: (§1)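 HEK293 lines stably expressing each Drosophila OR with GCaMP6, doxycycline-induced (1 μg/mL) 48 or 72 h. Fluorescence recorded 5 s baseline then 30 s after VOC injection at pH 7.3; ΔF=(FMAX−F0)/F0, normalized to 50 µM VUAA1 response per line, triplicate wells averaged; concentration series 0.01–100 μM.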
# Drosophila OR13a = molecular target: T2, Drosophila OR13a (Drosophila melanogaster, UniProt Q9VXL0); test: Calcium ion fluorescence (GCaMP6) assay, OR13a stable HEK293 cell line; format: cell-based; conditions: for DF norm AVERAGE OR13a: normalized fluorescence change, values below 0.05 threshold given as 0
# T2 construct: expressed in transfected cells
# T2 sequence (Q9VXL0 1-418): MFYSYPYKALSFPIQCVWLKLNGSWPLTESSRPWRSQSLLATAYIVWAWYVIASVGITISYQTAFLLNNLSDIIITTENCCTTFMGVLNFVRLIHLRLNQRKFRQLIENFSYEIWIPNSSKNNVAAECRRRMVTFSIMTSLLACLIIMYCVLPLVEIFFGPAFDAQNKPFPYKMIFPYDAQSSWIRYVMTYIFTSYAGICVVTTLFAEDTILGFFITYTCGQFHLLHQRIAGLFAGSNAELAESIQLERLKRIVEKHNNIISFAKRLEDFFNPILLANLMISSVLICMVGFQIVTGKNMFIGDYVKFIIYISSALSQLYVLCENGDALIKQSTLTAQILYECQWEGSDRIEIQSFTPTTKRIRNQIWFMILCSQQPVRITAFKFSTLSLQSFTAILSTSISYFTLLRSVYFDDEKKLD
# T2 sequence (Q9VNB5 1-486 partner): T1 sequence (Q9VNB5 1-486 partner)
# Summary of the method: as §1
structure (smiles),measurement,setting,value
C=CC(O)CCCCC (stereo not drawn) [1-octen-3-ol],DF norm AVERAGE OR49b,Drosophila OR49b,0
same,activation at 1 µM,"Drosophila OR49b; HEK293, VOC concentration 1 μM, read-out: OR49b response (VUAA1-normalized response)",0%
same,activation at 10 µM,"Drosophila OR49b; HEK293, VOC concentration 10 μM, read-out: OR49b response (VUAA1-normalized response)",0%
same,activation at 100 µM,"Drosophila OR49b; HEK293, VOC concentration 100 μM, read-out: OR49b response (VUAA1-normalized response)",0%
same,Average response,Drosophila OR49b; odorant cc. 1 µM,0.00
same,Average response,Drosophila OR49b; odorant cc. 10 µM,0.0174
same,Average response,Drosophila OR49b; odorant cc. 100 µM,0.0145
same,EC50,"Drosophila OR13a; AVERAGE EC50, the 12th table, corresponds to average EC50, given with 95% confidence interval",1440 nM
same,EC50,"Drosophila OR13a; EC50, AVERAGE of replicate fits, the 12th table, N 5",1440 nM
same,EC50,"Drosophila OR13a; EC50, AVERAGE of replicate fits, the 12th table, arithmetic average, N 5",1630 nM
same,EC50,"Drosophila OR13a; EC50, OR13a cell line, fitted Hill equation, Hill coefficient constrained to 1, maximal response max 1",1440 nM
same,EC50,"Drosophila OR13a; EC50, fitted average curve, the 12th table, fit to the average curve, n 0.854956",1410 nM
same,EC50,"Drosophila OR13a; EC50, fitted parameter per biological replicate, the 12th table, OR13a D-R 1-octen-3-ol, individual replicate fits, MIN 0, n 1",2370 nM and 2300 nM and 753 nM and 1970 nM and 761 nM
same,EC50,"Drosophila OR13a; EC50, fitted parameter per biological replicate, the 12th table, individual replicate fits",2370 nM and 2300 nM and 753 nM and 1970 nM and 761 nM
same,activation at 1 µM,"Drosophila OR13a; HEK293, read-out: OR13a Average response (VUAA1-normalized), 1 μM VOC, 50 μM VUAA1 = 1, responses not exceeding 0.05 considered 0",31%
same,activation at 10 µM,"Drosophila OR13a; HEK293, read-out: OR13a Average response (VUAA1-normalized), 10 μM VOC, 50 μM VUAA1 = 1, responses not exceeding 0.05 considered 0",41%
same,activation at 100 µM,"Drosophila OR13a; HEK293, read-out: OR13a Average response (VUAA1-normalized), 100 μM VOC, 50 μM VUAA1 = 1, responses not exceeding 0.05 considered 0",38%
same,activation at 1 µM,"Drosophila OR13a; HEK293, read-out: OR13a response (VUAA1-normalized response), VOC concentration 1 μM",31%
same,activation at 10 µM,"Drosophila OR13a; HEK293, read-out: OR13a response (VUAA1-normalized response), VOC concentration 10 μM",41%
same,activation at 100 µM,"Drosophila OR13a; HEK293, read-out: OR13a response (VUAA1-normalized response), VOC concentration 100 μM",38%
same,Emax,"Drosophila OR13a; HEK293, read-out: VUAA1 normalized MAX response",46%
same,DF norm AVERAGE OR13a,Drosophila OR13a; concentration 1,0.3125
same,DF norm AVERAGE OR13a,Drosophila OR13a; concentration 10,0.4133
same,DF norm AVERAGE OR13a,Drosophila OR13a; concentration 100,0.3797
same,"dose-response, response per biological replicate","Drosophila OR13a; the 12th table, VOC concentration 0.15",0 (2×) and 0.1313
same,"dose-response, AVERAGE response","Drosophila OR13a; the 12th table, VOC concentration 0.15, N 3",0.04376
same,"dose-response, response per biological replicate","Drosophila OR13a; the 12th table, VOC concentration 0.3",0 (3×) and 0.1249 and 0.1272
same,"dose-response, AVERAGE response","Drosophila OR13a; the 12th table, VOC concentration 0.3, N 5",0.0504
same,"dose-response, response per biological replicate","Drosophila OR13a; the 12th table, VOC concentration 0.6",0 (2×) and 0.1801 and 0.08156 and 0.213
same,"dose-response, AVERAGE response","Drosophila OR13a; the 12th table, VOC concentration 0.6, N 5",0.09494
same,"dose-response, response per biological replicate","Drosophila OR13a; the 12th table, VOC concentration 1.25",0.2071 and 0.2793 and 0.1886 and 0.3516
same,"dose-response, AVERAGE response","Drosophila OR13a; the 12th table, VOC concentration 1.25, N 4",0.2566
same,"dose-response, response per biological replicate","Drosophila OR13a; the 12th table, VOC concentration 2.5",0.2646 and 0.1888 and 0.4175 and 0.197 and 0.3823
same,"dose-response, AVERAGE response","Drosophila OR13a; the 12th table, VOC concentration 2.5, N 5",0.2901
same,"dose-response, response per biological replicate","Drosophila OR13a; the 12th table, VOC concentration 5",0.42 and 0.3195 and 0.4159 and 0.2978 and 0.4731
same,"dose-response, AVERAGE response","Drosophila OR13a; the 12th table, VOC concentration 5, N 5",0.3853
same,"dose-response, response per biological replicate","Drosophila OR13a; the 12th table, VOC concentration 10",0.4322 and 0.4316 and 0.4215 and 0.2626 and 0.4446
same,"dose-response, AVERAGE response","Drosophila OR13a; the 12th table, VOC concentration 10, N 5",0.3985
same,"dose-response, response per biological replicate","Drosophila OR13a; the 12th table, VOC concentration 20",0.4616 and 0.4143 and 0.5545 and 0.335 and 0.5659
same,"dose-response, AVERAGE response","Drosophila OR13a; the 12th table, VOC concentration 20, N 5",0.4662
same,"dose-response, response per biological replicate","Drosophila OR13a; the 12th table, VOC concentration 40",0.4507 and 0.4868 and 0.5125 and 0.286 and 0.5426
same,"dose-response, AVERAGE response","Drosophila OR13a; the 12th table, VOC concentration 40, N 5",0.4557
same,"dose-response, response per biological replicate","Drosophila OR13a; the 12th table, VOC concentration 60",0.3021 and 0.4978 and 0.4725 and 0.5843
same,"dose-response, AVERAGE response","Drosophila OR13a; the 12th table, VOC concentration 60, N 4",0.4642
same,"dose-response, response per biological replicate","Drosophila OR13a; the 12th table, VOC concentration 80",0.4797 and 0.3236 and 0.407 and 0.4017 and 0.4897
same,"dose-response, AVERAGE response","Drosophila OR13a; the 12th table, VOC concentration 80, N 5",0.4203
same,"dose-response, response per biological replicate","Drosophila OR13a; the 12th table, VOC concentration 100",0.3778 and 0.3442 and 0.2898 and 0.4501
same,"dose-response, AVERAGE response","Drosophila OR13a; the 12th table, VOC concentration 100, N 4",0.3654
same,AVERAGE MAX,"Drosophila OR13a; the 12th table, average of replicate fits, N 5",0.459
same,"MAX, fitted average curve","Drosophila OR13a; the 12th table, fit to the average curve, n 0.854956",0.4618
same,"MAX, fitted parameter per biological replicate","Drosophila OR13a; the 12th table, individual replicate fits",0.5125 and 0.4135 and 0.4717 and 0.37 and 0.5273
